In patent publication US6706740B2, “Fungicidal heterocyclic aromatic amides and their compositions, methods of use and preparation” (Dow AgroSciences LLC, priority 1999, dated 2004):

Tested on: Septoria tritici—SEPTTR
Test: Leaf Blotch of Wheat, in vivo whole plant, 24 Hour Protectant
Conditions: Zymoseptoria tritici, 24 h, wheat plants sprayed at 100 ppm, inoculated after 24 hours; control of fungal infection vs untreated plants; read-out: SEPTTR in vivo 1 Day Protectant

| Structure (SMILES) | pest or weed control at 100 ppm [%] |
| --- | --- |
| CC(=O)Oc1cccnc1C(=O)Nc1ccc(Oc2cccc(C(F)(F)F)c2)cc1 [Compound 570] | 25 to 74 |
| O=C(Nc1ccc(Oc2cccc(C(F)(F)F)c2)cc1)c1nscc1O [Compound 551] | 25 to 74 |
| CCCCCc1ccc(C(C)NC(=O)c2nc(Br)ccc2O)cc1 (centres unmarked) [Compound 489] | < 25 |

Same assay, conditions: in vivo

| Structure (SMILES) | SEPTTR in vivo 1 Day Protectant |
| --- | --- |
| COc1ccnc(C(=O)N[C@H]2COC(=O)[C@H](Cc3ccccc3)[C@@H](OC(=O)C(C)C)[C@H](C)OC2=O)c1OC(=O)Cc1ccccc1 [Compound 648] | + + |

Tested on: Rhizoctonia solani (RHIZSO)
Test: microbe, parasite or virus in culture
Type: cell-based
Conditions: Rhizoctonia solani, read-out: RHIZSO in vitro Growth Inhibition

| Structure (SMILES) | inhibition at 25 ppm [%] |
| --- | --- |
| COc1ccnc(C(=O)N[C@H]2COC(=O)[C@H](Cc3ccccc3)[C@@H](OC(=O)C(C)C)[C@H](C)OC2=O)c1OC(=O)Cc1ccccc1 [Compound 648] | < 80 |
| CC(=O)Oc1cccnc1C(=O)Nc1ccc(Oc2cccc(C(F)(F)F)c2)cc1 [Compound 570] | < 80 |
| O=C(Nc1ccc(Oc2cccc(C(F)(F)F)c2)cc1)c1nscc1O [Compound 551] | < 80 |
| CCCCCc1ccc(C(C)NC(=O)c2nc(Br)ccc2O)cc1 (centres unmarked) [Compound 489] | < 80 |

Tested on: Phytophthora infestans (PHYTIN)
Test: microbe, parasite or virus in culture
Type: cell-based
Conditions: Phytophthora infestans, read-out: PHYTIN in vitro Growth Inhibition

| Structure (SMILES) | inhibition at 25 ppm [%] |
| --- | --- |
| COc1ccnc(C(=O)N[C@H]2COC(=O)[C@H](Cc3ccccc3)[C@@H](OC(=O)C(C)C)[C@H](C)OC2=O)c1OC(=O)Cc1ccccc1 [Compound 648] | < 80 |
| CC(=O)Oc1cccnc1C(=O)Nc1ccc(Oc2cccc(C(F)(F)F)c2)cc1 [Compound 570] | < 80 |
| O=C(Nc1ccc(Oc2cccc(C(F)(F)F)c2)cc1)c1nscc1O [Compound 551] | < 80 |
| CCCCCc1ccc(C(C)NC(=O)c2nc(Br)ccc2O)cc1 (centres unmarked) [Compound 489] | < 80 |

Tested on: Leptosphaeria nodorum—LEPTNO
Test: Glume Blotch of Wheat, in vivo whole plant, 24 Hour Protectant
Conditions: Leptosphaeria; wheat plants sprayed at 100 ppm, inoculated after 24 hours; control of fungal infection vs untreated plants; read-out: LEPTNO in vivo 1 Day Protectant

| Structure (SMILES) | pest or weed control at 100 ppm [%] |
| --- | --- |
| CC(=O)Oc1cccnc1C(=O)Nc1ccc(Oc2cccc(C(F)(F)F)c2)cc1 [Compound 570] | 25 to 74 |
| O=C(Nc1ccc(Oc2cccc(C(F)(F)F)c2)cc1)c1nscc1O [Compound 551] | 25 to 74 |
| CCCCCc1ccc(C(C)NC(=O)c2nc(Br)ccc2O)cc1 (centres unmarked) [Compound 489] | < 25 |

Same assay, conditions: in vivo

| Structure (SMILES) | LEPTNO in vivo 1 Day Protectant |
| --- | --- |
| COc1ccnc(C(=O)N[C@H]2COC(=O)[C@H](Cc3ccccc3)[C@@H](OC(=O)C(C)C)[C@H](C)OC2=O)c1OC(=O)Cc1ccccc1 [Compound 648] | + + |

Tested on: Puccinia recondita—PUCCRT
Test: Brown Rust of Wheat, in vivo whole plant, 24 Hour Protectant
Conditions: Puccinia; wheat plants sprayed at 100 ppm, inoculated after 24 hours; control of fungal infection vs untreated plants; read-out: PUCCRT in vivo 1 Day Protectant

| Structure (SMILES) | pest or weed control at 100 ppm [%] |
| --- | --- |
| CC(=O)Oc1cccnc1C(=O)Nc1ccc(Oc2cccc(C(F)(F)F)c2)cc1 [Compound 570] | < 25 |
| O=C(Nc1ccc(Oc2cccc(C(F)(F)F)c2)cc1)c1nscc1O [Compound 551] | < 25 |
| CCCCCc1ccc(C(C)NC(=O)c2nc(Br)ccc2O)cc1 (centres unmarked) [Compound 489] | 25 to 74 |

Same assay, conditions: in vivo

| Structure (SMILES) | PUCCRT in vivo 1 Day Protectant |
| --- | --- |
| COc1ccnc(C(=O)N[C@H]2COC(=O)[C@H](Cc3ccccc3)[C@@H](OC(=O)C(C)C)[C@H](C)OC2=O)c1OC(=O)Cc1ccccc1 [Compound 648] | + + |

Tested on: Phytophthora infestans—PHYTIN
Test: whole plant or invertebrate
Type: in vivo
Conditions: Phytophthora, in Solanum lycopersicum, 24 h, read-out: PHYTIN in vivo 1 Day Protectant

| Structure (SMILES) | pest or weed control at 100 ppm [%] |
| --- | --- |
| COc1ccnc(C(=O)N[C@H]2COC(=O)[C@H](Cc3ccccc3)[C@@H](OC(=O)C(C)C)[C@H](C)OC2=O)c1OC(=O)Cc1ccccc1 [Compound 648] | < 25 |
| CC(=O)Oc1cccnc1C(=O)Nc1ccc(Oc2cccc(C(F)(F)F)c2)cc1 [Compound 570] | < 25 |
| O=C(Nc1ccc(Oc2cccc(C(F)(F)F)c2)cc1)c1nscc1O [Compound 551] | < 25 |
| CCCCCc1ccc(C(C)NC(=O)c2nc(Br)ccc2O)cc1 (centres unmarked) [Compound 489] | < 25 |

Tested on: Ustilago maydis (USTIMA)
Test: microbe, parasite or virus in culture
Type: cell-based
Conditions: Mycosarcoma maydis, read-out: USTIMA in vitro Growth Inhibition

| Structure (SMILES) | inhibition at 25 ppm [%] |
| --- | --- |
| COc1ccnc(C(=O)N[C@H]2COC(=O)[C@H](Cc3ccccc3)[C@@H](OC(=O)C(C)C)[C@H](C)OC2=O)c1OC(=O)Cc1ccccc1 [Compound 648] | < 80 |
| CC(=O)Oc1cccnc1C(=O)Nc1ccc(Oc2cccc(C(F)(F)F)c2)cc1 [Compound 570] | < 80 |
| O=C(Nc1ccc(Oc2cccc(C(F)(F)F)c2)cc1)c1nscc1O [Compound 551] | < 80 |
| CCCCCc1ccc(C(C)NC(=O)c2nc(Br)ccc2O)cc1 (centres unmarked) [Compound 489] | < 80 |

Tested on: Stagonospora nodorum (Leptosphaeria nodorum—LEPTNO)
Test: In vitro fungal growth inhibition, Stagonospora nodorum (LEPTNO)
Type: cell-based
Conditions: Leptosphaeria, read-out: LEPTNO in vitro Growth Inhibition

| Structure (SMILES) | inhibition at 25 ppm [%] |
| --- | --- |
| COc1ccnc(C(=O)N[C@H]2COC(=O)[C@H](Cc3ccccc3)[C@@H](OC(=O)C(C)C)[C@H](C)OC2=O)c1OC(=O)Cc1ccccc1 [Compound 648] | < 80 |

Same assay, conditions: Leptosphaeria; 25 ppm in the growth medium; read-out: LEPTNO in vitro Growth Inhibition

| Structure (SMILES) | inhibition at 25 ppm [%] |
| --- | --- |
| CC(=O)Oc1cccnc1C(=O)Nc1ccc(Oc2cccc(C(F)(F)F)c2)cc1 [Compound 570] | < 80 |
| O=C(Nc1ccc(Oc2cccc(C(F)(F)F)c2)cc1)c1nscc1O [Compound 551] | < 80 |
| CCCCCc1ccc(C(C)NC(=O)c2nc(Br)ccc2O)cc1 (centres unmarked) [Compound 489] | < 80 |

Tested on: Magnaporthe grisea (Pyricularia oryzae—PYRIOR)
Test: microbe, parasite or virus in culture
Type: cell-based
Conditions: Pyricularia oryzae, read-out: PYRIOR in vitro Growth Inhibition

| Structure (SMILES) | inhibition at 25 ppm [%] |
| --- | --- |
| COc1ccnc(C(=O)N[C@H]2COC(=O)[C@H](Cc3ccccc3)[C@@H](OC(=O)C(C)C)[C@H](C)OC2=O)c1OC(=O)Cc1ccccc1 [Compound 648] | > 80 |
| CC(=O)Oc1cccnc1C(=O)Nc1ccc(Oc2cccc(C(F)(F)F)c2)cc1 [Compound 570] | > 80 |
| O=C(Nc1ccc(Oc2cccc(C(F)(F)F)c2)cc1)c1nscc1O [Compound 551] | < 80 |
| CCCCCc1ccc(C(C)NC(=O)c2nc(Br)ccc2O)cc1 (centres unmarked) [Compound 489] | < 80 |

Tested on: Erysiphe graminis—ERYSGT
Test: Powdery Mildew of Wheat, in vivo whole plant, 24 Hour Protectant
Conditions: Erysiphe; wheat plants sprayed at 100 ppm, inoculated after 24 hours; control of fungal infection vs untreated plants; read-out: ERYSGT in vivo 1 Day Protectant

| Structure (SMILES) | pest or weed control at 100 ppm [%] |
| --- | --- |
| O=C(Nc1ccc(Oc2cccc(C(F)(F)F)c2)cc1)c1nscc1O [Compound 551] | 25 to 74 |
| CCCCCc1ccc(C(C)NC(=O)c2nc(Br)ccc2O)cc1 (centres unmarked) [Compound 489] | < 25 |

Same assay, conditions: in vivo

| Structure (SMILES) | ERYSGT in vivo 1 Day Protectant |
| --- | --- |
| COc1ccnc(C(=O)N[C@H]2COC(=O)[C@H](Cc3ccccc3)[C@@H](OC(=O)C(C)C)[C@H](C)OC2=O)c1OC(=O)Cc1ccccc1 [Compound 648] | + + |

Same assay, conditions: wheat plants sprayed at 100 ppm, inoculated after 24 hours; control of fungal infection vs untreated plants

| Structure (SMILES) | ERYSGT in vivo 1 Day Protectant |
| --- | --- |
| CC(=O)Oc1cccnc1C(=O)Nc1ccc(Oc2cccc(C(F)(F)F)c2)cc1 [Compound 570] | + + |

Tested on: Mycosphaerella graminicola (Septoria tritici—SEPTTR)
Test: In vitro fungal growth inhibition, Mycosphaerella graminicola (SEPTTR)
Type: cell-based
Conditions: Zymoseptoria tritici, read-out: SEPTTR in vitro Growth Inhibition

| Structure (SMILES) | inhibition at 25 ppm [%] |
| --- | --- |
| COc1ccnc(C(=O)N[C@H]2COC(=O)[C@H](Cc3ccccc3)[C@@H](OC(=O)C(C)C)[C@H](C)OC2=O)c1OC(=O)Cc1ccccc1 [Compound 648] | < 80 |

Same assay, conditions: Zymoseptoria tritici; 25 ppm in the growth medium; read-out: SEPTTR in vitro Growth Inhibition

| Structure (SMILES) | inhibition at 25 ppm [%] |
| --- | --- |
| CC(=O)Oc1cccnc1C(=O)Nc1ccc(Oc2cccc(C(F)(F)F)c2)cc1 [Compound 570] | < 80 |
| O=C(Nc1ccc(Oc2cccc(C(F)(F)F)c2)cc1)c1nscc1O [Compound 551] | < 80 |
| CCCCCc1ccc(C(C)NC(=O)c2nc(Br)ccc2O)cc1 (centres unmarked) [Compound 489] | < 80 |
